Values of other authors, collected in patent US20250066562A1, “METHOD AND MATERIAL FOR DIFFERENTIATED SEQUESTRATION OF SUBSTANCES OF DIFFERENT SUBSTANCE GROUPS WITH THE AID OF HYDROGELS CONTAINING SULPHATED OR SULPHONATED COMPONENTS” (LEIBNIZ-INSTITUT FÜR POLYMERFORSCHUNG E.V., priority 2017, published 2025).

Tests used:
antithrombin = antithrombin (Homo sapiens, UniProt P01008); details: according to Freudenberg et al., J. Controlled Release 220 (2015) 79-88
thrombin = thrombin (Homo sapiens, UniProt P00734); details: according to Freudenberg et al., J. Controlled Release 220 (2015) 79-88

Sequence of antithrombin (P01008 33-464): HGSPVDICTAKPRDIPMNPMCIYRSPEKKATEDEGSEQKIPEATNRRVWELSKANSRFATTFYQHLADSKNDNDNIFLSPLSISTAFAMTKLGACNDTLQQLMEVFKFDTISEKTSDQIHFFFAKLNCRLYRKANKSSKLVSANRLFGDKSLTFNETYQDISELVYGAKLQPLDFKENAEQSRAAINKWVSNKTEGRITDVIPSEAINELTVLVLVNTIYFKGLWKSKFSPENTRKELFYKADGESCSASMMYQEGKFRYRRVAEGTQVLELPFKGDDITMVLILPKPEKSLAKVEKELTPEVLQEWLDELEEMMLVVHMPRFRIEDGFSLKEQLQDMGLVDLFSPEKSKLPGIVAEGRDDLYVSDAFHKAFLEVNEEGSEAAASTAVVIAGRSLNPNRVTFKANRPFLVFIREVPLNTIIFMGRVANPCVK

Substance | Interaction with antithrombin (antithrombin) | Interaction with thrombin (thrombin)
Heparin [GB1] | interaction | interaction
N-desulfated Heparin [GB2] | lack of interaction | lack of interaction
